Laboratory results from patent US8980908B2, “Non-peptidyl, potent, and selective mu opioid receptor antagonists and their use in treating opioid addiction and opioid induced constipation” (Virginia Commonwealth University, priority 2009, dated 2015).
Several values for one entry are separate records, joined by “and”; a condition that tells them apart may be missing. Equal values may be shown once. Read-outs that look alike come from different tables or passages of the source.

Columns and labels:
DOR [1] = target: DOR (UniProt P41143); format: binding; set-up: Ki δ; four experiments; other: three experiments; other: SNC80 5 μM; Ki δ
[2] = test system: morphine antinociceptive effect in mice; details: antagonizing morphine 10 mg/kg; s.c.; cited from earlier work
[3] = test system: morphine antinociception in mice; assay: Warm-water tail immersion test, blockade of morphine antinociception (Example 2); format: in vivo, mouse (Swiss Webster); details: s.c., 5 min before morphine 10 mg/kg s.c.; 56 °C
DOR [4] = target: DOR (UniProt P41143); assay: DOR [35S]GTPγS binding assay (Example 5); format: biochemical; set-up: Ki δ; four experiments; other: three experiments; other: SNC80 5 μM; Ki δ
Description: (§1) The KOR full agonist 2-(3,4-dichlorophenyl)-N-methyl-N-[(1R,2R)-2-pyrrolidin-1-ylcyclohexyl]acetamide 17 (U50,488)41 and DOR full agonist 4-[(R)-[(2S,5R)-4-allyl-2,5-dimethylpiperazin-1-yl](3-methoxyphenyl)methyl]-N,N-diethylbenzamide 18 (SNC80)42 were included in the assays as reference compounds for a maximal effect at the KOR and the DOR, respectively.
(§2) The radioligand binding assay and the [^35S]GTPγS binding assay were conducted using monoclonal OR-expressed Chinese hamster ovarian (CHO) cell lines as described previously.^22,29,36,37 Briefly, for the competition binding assay, [^3H]NLX, [^3H]DPN, and [^3H]NTI were used to label the MOR, the KOR, and the DOR, respectively. Aliquots of a membrane protein (30 μg) were incubated with the corresponding radioligand in the presence of different concentrations of the ligand under investigation in TME buffer (50 mM Tris, 3 mM MgCl2, 0.2 mM EGTA, pH 7.7) at 30° C. for 1.5 h. The bound radioactive ligand was separated from the free radioligand by filtration using the Brandel harvester (Biomedical Research & Development Laboratories, MD). […] The potency of the drugs in displacing the specific binding of the radioligand was determined by linear regression analysis of Hill plots. […] The [^35S]GTPγS functional assays were conducted in the same cell membranes used for the receptor binding assays. Membrane proteins (10 μg) were incubated with varying concentrations of compounds, GDP (10 μM) and 0.1 nM [^35S]GTPγS in assay buffer (50 mM Tris, 3 mM MgCl2, 100 mM NaCl, 0.2 mM EGTA, pH 7.7) for 1.5 h at 30° C. Nonspecific binding was determined with 20 μM unlabeled GTPγS.

[5] = target: mu, delta and kappa opioid receptors; details: cited from earlier work
KOR [6] = target: T1, KOR (Homo sapiens, UniProt P41145); assay: Competitive radioligand binding, [3H]diprenorphine, OR-expressed CHO membranes (Examples 5 and 6)
T1 construct: expressed in transfected cells; host or cells: CHO (Chinese hamster ovary) cell line, membrane preparation

KOR [7] = target: T1, KOR; assay: KOR [35S]GTPγS binding assay (Example 5); format: biochemical; details: for Emax: read-out: KOR [35S]GTPγS Binding % Emax of U50,488
Description: as §1, §2

[8] = test system: morphine antinociceptive effect in mice; assay: Warm-water tail immersion assay, antagonism of morphine antinociception (Example 5); format: in vivo, mouse (Swiss-Webster); details: antagonizing morphine 10 mg/kg; s.c.
MOR [9] = target: T2, MOR (Mus musculus, UniProt P42866); details: [35S]GTPγS assays
MOR [10] = target: T2, MOR; assay: Competitive radioligand binding, [3H]naloxone, OR-expressed CHO membranes (Examples 5 and 6); set-up: expressed in transfected cells; host or cells: CHO (Chinese hamster ovary) cell line, membrane preparation; details: Table 8; Ki ratio
MOR [11] = target: T2, MOR; assay: biochemical; details: read-out: MOR [35S]GTPγS Binding % Emax of DAMGO
[12] = test system: chronic morphine-exposed mice; assay: Opioid withdrawal assays in morphine-pelleted mice; details: naltrexone 1 mg/kg, counted over 20 minutes
MOR [13] = target: T2, MOR; assay: [35S]GTPγS functional assay (Example 1); format: biochemical; set-up: expressed in transfected cells; host or cells: CHO (Chinese hamster ovary) cell line, membrane preparation
patients with OIC = details: cited from earlier work
MOR [14] = target: T2, MOR; assay: 35S-GTP[γS]-binding functional assay in MOR expressing CHO cells (Example 2); format: biochemical; set-up: expressed in transfected cells; host or cells: CHO (Chinese hamster ovary) cell line, membrane preparation
Description: Furthermore, these systems express the receptor at high density to provide optimal signal-to-noise ratios in the radioligand and ^35S-GTP[γS] binding assays.
Aliquots of a membrane preparation were incubated with the radioligands in the presence of different concentrations of the drug under investigation at 30° C. for 1 h. […] The potency of the drugs in displacing the specific binding of the radioligand was determined from data using linear regression analysis of Hill plots. The IC50 values will then be determined and corrected to K1 values using the Cheng-Prusoff equation. Functional assays, including ^35S-GTP[γS]-binding assay were conducted in the same cell membranes used for the receptor binding assays.

[15] = read-out: Ki δ; Table 8 (NAQ analogues); four experiments
[16] = read-out: DOR [35S]GTPγS Binding EC50; three experiments

**Q.** With “17-Cyclopropylmethyl-3,14β-dihydroxy-4,5α-epoxy-6α-[(3′-isoquinolyl)acetamido]morphinan [Compound 9]” as the compound, how does the Ki (DOR [1]; Table 8 (NAQ analogues); four experiments; read-out: Ki δ) read?
**A.** 162 ± 15 nM

**Q.** And the Ki (DOR [1]; Table 12 (Example 6); read-out: Ki δ)?
**A.** 162 ± 15 nM

**Q.** What about the “AD50 values (data taken from Li, et al.)” value [2] of the same compound?
**A.** 0.45 (0.27-0.78) mg/kg (95% CL)

**Q.** And the “AD50 value for blockade of morphine antinociception” value [3]?
**A.** 0.456 (0.277 to 0.789) mg/kg (95% C.L.)

**Q.** What about the “DOR [35S]GTPγS Binding % Emax of SNC80” value (DOR [4]; SNC80 5 μM) of the same compound?
**A.** 53.5 ± 5.4%

**Q.** What about the EC50 (DOR [4]; three experiments; read-out: DOR [35S]GTPγS Binding EC50) of the same compound?
**A.** 98.6 ± 23.7 nM

**Q.** With `COc1cccc2c1[C@]13CCN(CC4CC4)[C@H](C2)[C@]1(OC)CCC(=O)C3` [cyprodime] as the compound, how does the “Ki value ratio delta/mu” value [5] read?
**A.** ≈ 40

**Q.** And the “Ki value ratio kappa/mu” value [5]?
**A.** ≈ 45

**Q.** Which results are given for `O=C(N[C@H]1CC[C@@]2(O)[C@H]3Cc4ccc(O)c5c4[C@@]2(CCN3CC2CC2)[C@H]1O5)c1cc2cc([N+](=O)[O-])ccc2cn1` [Compound 11, 17-Cyclopropylmethyl-3,14β-dihydroxy-4,5α-epoxy-6α-(6-nitroisoquinoline-3-carboxamido)morphinan]?
**A.** Ki (KOR [6]): 27.9 ± 2 nM; EC50 (KOR [7]): 62.6 ± 10.4 nM; Emax (KOR [7]): 21.1 ± 0.4%; Ki (DOR [1]; [15]): 94.7 ± 1.1 nM; AD50 values [8]: 0.92 (0.51-1.67) mg/kg (95% CL); Functional Selectivity δ/μ (MOR [9]): 3.4; Functional Selectivity κ/μ (MOR [9]): 2.0; Selectivity δ/μ (MOR [10]): 16; Selectivity κ/μ (MOR [10]): 4.9; Emax (MOR [11]): 12.5 ± 1.4%; DOR [35S]GTPγS Binding % Emax of SNC80 (DOR [4]; SNC80 5 μM): 67.7 ± 2.0%; EC50 (DOR [4]; [16]): 108.1 ± 0.8 nM

**Q.** Which results are given for `O=C1CC[C@@]2(O)[C@H]3Cc4ccc(O)c5c4[C@@]2(CCN3CC2CC2)[C@H]1O5` [Naltrexone]?
**A.** AD50 values [8]: 0.006 (0.003-0.014) mg/kg (95% CL); escape jumps [12]: 30.0±12.1; wet-dog shakes [12]: 14.8±2.2

**Q.** What does the source list for `COc1c(C(=O)N[C@H]2CC[C@@]3(O)[C@H]4Cc5ccc(O)c6c5[C@@]3(CCN4CC3CC3)[C@H]2O6)nc(Cl)c2ccccc12` [Compound 4, 17-Cyclopropylmethyl-3,14β-dihydroxy-4,5α-epoxy-6α-(1-chloro-4-methoxyisoquinoline-3-carboxamido)morphinan]?
**A.** Ki (KOR [6]): 22.2 ± 2.1 nM; EC50 (KOR [7]): 26.4 ± 3.9 nM; Emax (KOR [7]): 7.1 ± 0.5%; Ki (DOR [1]; [15]): 33.9 ± 0.5 nM; Emax (MOR [11]): 51 ± 0.4%; DOR [35S]GTPγS Binding % Emax of SNC80 (DOR [4]; SNC80 5 μM): 54.8 ± 0.1%; EC50 (DOR [4]; [16]): 32.6 ± 5.1 nM

**Q.** Which “Percent Max of DAMGO” value (MOR [13]; Emax of compound vs Emax of DAMGO (normalized to 100%)) does the source give for `C[C@@H](O)[C@H](NC(=O)[C@H]1NC(=O)[C@H]([C@@H](C)O)NC(=O)[C@H](CCCNC(=N)N)NC(=O)[C@@H](Cc2c[nH]c3ccccc23)NC(=O)[C@H](Cc2ccc(O)cc2)NC(=O)[C@@H](NC(=O)[C@H](N)Cc2ccccc2)CSSC1(C)C)C(N)=O` [CTAP, D-Phe-Cys-Tyr-D-Trp-Arg-Thr-Pen-Thr-NH2] here?
**A.** 0.00%

**Q.** For `C[N@+]1(CC2CC2)CC[C@]23c4c5ccc(O)c4O[C@H]2C(=O)CC[C@@]3(O)[C@H]1C5` [MNTX, methylnaltrexone], which “Ki value ratio delta/mu” value [5] is on record?
**A.** ≈ 24

**Q.** And the “Ki value ratio kappa/mu” value [5]?
**A.** 10

**Q.** And the “efficiency to induce SBM” value (patients with OIC; human, in vivo)?
**A.** ≤ 62%

**Q.** And the “patients with laxation within 4 hours after the first dose” value (patients with OIC; two major clinical trials, subcutaneous)?
**A.** 48% and 62%

**Q.** For `C[C@@H](NC(=O)[C@@H](N)Cc1ccc(O)cc1)C(=O)NCC(=O)N(C)[C@@H](Cc1ccccc1)C(=O)NCCO` [DAMGO, reference compound], which “Emax (% Stim)” value (MOR [14]; n=3) is on record?
**A.** 366.5 ± 23.0 % Stim

**Q.** What about the “Percent Max of DAMGO” value (MOR [14]; normalized to full agonist DAMGO (3 μM)) of the same compound?
**A.** 100.0 ± 6.2%

**Q.** What about the Emax (MOR [13]; DAMGO reference) of the same compound?
**A.** 366±23 % stimulation over basal
